Paper PMC9731865, “Gambogic acid and juglone inhibit RNase P through distinct mechanisms” (The Journal of Biological Chemistry, 2022)

Target: T1, A. thaliana PRORP1 (Arabidopsis thaliana, UniProt Q66GI4)
T1 construct: made in house
T1 sequence (Q66GI4 77-572): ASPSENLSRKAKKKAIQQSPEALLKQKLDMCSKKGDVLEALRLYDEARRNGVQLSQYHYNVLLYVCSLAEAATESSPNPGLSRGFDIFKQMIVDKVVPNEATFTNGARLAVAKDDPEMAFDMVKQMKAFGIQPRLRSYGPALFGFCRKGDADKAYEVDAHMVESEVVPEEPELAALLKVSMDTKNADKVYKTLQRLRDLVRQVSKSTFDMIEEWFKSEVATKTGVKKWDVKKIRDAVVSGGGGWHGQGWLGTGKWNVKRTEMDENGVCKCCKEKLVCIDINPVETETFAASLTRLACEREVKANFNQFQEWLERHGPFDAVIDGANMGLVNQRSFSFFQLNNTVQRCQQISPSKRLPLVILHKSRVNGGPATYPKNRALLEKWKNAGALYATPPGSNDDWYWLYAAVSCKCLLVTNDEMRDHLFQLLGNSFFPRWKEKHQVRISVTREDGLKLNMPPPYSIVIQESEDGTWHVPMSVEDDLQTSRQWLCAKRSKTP
Assay: FP cleavage assay, PRORP1 dose response
Format: biochemical
Conditions: for activity at 6.25 µM: 6.25 μM of inhibitor, FP cleavage assay, read-out: PRORP1 Activity (%); for IC50: 30 min preincubation, 0.3 nM PRORP1, 800 nM pre-tRNA, 25 °C, apparent IC50 for juglone
Description: Compounds gambogic acid (A) and juglone (B) were incubated with enzyme at double the reaction concentration for 30 min prior to the addition of an equal volume of substrate to initiate the reaction. PRORP1 reactions (shown in green) were performed with 0.3 nM PRORP1 and 800 nM pre-tRNA containing 40 nM Fl-pre-tRNA at 25 °C in 30 mM MOPS pH 7.8, 5 mM MgCl2, 100 mM NaCl, 1 mM TCEP, 500 nM (12 μg/ml) yeast tRNA, 5 mM spermidine, 6.65 μg/ml BSA, and 0.01% NP-40. MRPP1/2/3 reactions (shown in red) were performed using 50 nM MRPP3, 500 nM MRPP1/2, 500 nM pre-tRNA containing 40 nM Fl-pre-tRNA at 37 °C in 50 mM MOPS (pH 7.8), 1 mM TCEP, 4.5 mM MgCl2, and 100 mM NaCl. B. subtilis RNase P reactions (shown in blue) were performed using 20 nM RNase P and 500 nM pre-tRNA containing 40 nM Fl-pre-tRNA at 37 °C in 50 mM Tris, pH 7.2, 5 mM MgCl2, 100 mM KCl, 500 nM (12 μg/ml) yeast tRNA, 20 mM dithiothreitol (DTT), 10 mM spermidine, and 0.01% NP-40. Equation 1 was fit to each dataset.
The activity of PRORP1 catalyzed pre-tRNA cleavage was measured by monitoring the fluorescence anisotropy (FA) signal (λex = 485 nm and λem = 535 nm) over time at 25 °C in buffer conditions optimized for a high-throughput format, 30 mM MOPS pH 7.8, 5 mM MgCl2, 100 mM NaCl, 1 mM TCEP, 500 nM (12 μg/ml) yeast tRNA, 5 mM spermidine, 6.65 μg/ml BSA, and 0.01% NP-40. Yeast tRNA^mix (Roche) was used to reduce the number of compounds that inhibit PRORP1 activity by targeting tRNA. Prior to each reaction, pre-tRNA was heated for 3 min at 95 °C to unfold the RNA and refolded in the reaction buffer at room temperature (25 °C) for 30 min. Reactions were performed in black, 96-well plates (Corning Incorporation, #3686) using a TECAN plate-reader (Infinite F500, G-factor = 1.05) at 25 °C, and the FA values recorded. Reactions were initiated with the addition of substrate to enzyme. Experiments were done in the presence of excess substrate. The concentration of enzyme was 0.3 to 5 nM, the concentration of labeled substrate (Fl-pre-tRNA) was 40 nM, and the concentration of pre-tRNA was 120 to 4000 nM. The concentration of Fl-pre-tRNA was held constant in all reactions.
The dose response was measured using the FP assay as described above with varying concentrations of compound. Compounds were incubated with PRORP1 at twice the reaction concentration for 30 min prior to the addition of equal volumes of substrate to initiate the reaction. Experiments were done under multiple turnover conditions (same buffer conditions as the FP assay). […] PRORP1 activity was determined as a function of inhibitor concentration, and Equation 1 was fit to the data to determine the IC50 value. The standard error of the mean (SEM) is reported from the fit.(1) Activity(%)=100/1+([I]/IC50)^n

CC(C)=CCC[C@]1(C)C=Cc2c(O)c3c(c(CC=C(C)C)c2O1)O[C@]12C(=C[C@@H]4C[C@H]1C(C)(C)O[C@@]2(C/C=C(/C)C(=O)O)C4=O)C3=O [gambogic acid]
activity at 6.25 µM: 29.1% | IC50: 1010 ± 40 nM

O=C1C=CC(=O)c2c(O)cccc21 [juglone, 5-hydroxy-1,4-naphthalenedione]
activity at 6.25 µM: 20.2% | IC50: 2100 ± 40 nM
